In test [1] the test system is Strain 103Nt.4. Nature of the test: Antibiotic sensitivity (susceptibility test disks on Medium A agar). To be noted: antibiotic disks (contents in Appendix C), 37° C., up to 14 days. It counts as cell-based. Here is the method: (§1) A light suspension of bacteria in alkaline, saline, nutrient broth was spread on the surface of alkaline nutrient, saline agar (Medium A) and allowed to dry. Commercially available antibiotic susceptibility test disks (Oxoid or Mast Laboratories: Merseyside, U.K.) were applied to the agar surface. The bacteria were cultivated at 37° C. for up to 14 days. Clear zones around the antibiotic disks indicated sensitivity and were recorded as positive.

The test system of test [2] is Strain 31M.4. The test is described as above. Format: cell-based. To be noted: antibiotic disks (contents in Appendix C), 37° C., up to 14 days. Here is the method: as §1
Test [3] deals with Strain 86M.4. The test is described as above. It counts as cell-based. To be noted: antibiotic disks (contents in Appendix C), 37° C., up to 14 days. How it is done: as §1
For test [4], the system named is Strain 931LM.4. The description is as above. It counts as cell-based. To be noted: antibiotic disks (contents in Appendix C), 37° C., up to 14 days. How it is done: as §1
Test [5] relates to Strain 93dLM.4. Described as above. Format: cell-based. To be noted: antibiotic disks (contents in Appendix C), 37° C., up to 14 days. Here is the method: as §1
Test [6] relates to Strain 95LM.4. Described as above. Format: cell-based. To be noted: antibiotic disks (contents in Appendix C), 37° C., up to 14 days. How it is done: as §1
Test [7] deals with Strain 98Nt.4. The test is described as above. To be noted: antibiotic disks (contents in Appendix C), 37° C., up to 14 days. It counts as cell-based. How it is done:
as §1

The subject of test [8] is Cluster 1 haloalkaliphilic bacteria. The test can be described thus: Antibiotic sensitivity, distribution of positive characters. Format: cell-based. To be noted: share of strains of cluster 1 (78.5% similarity level, SSM) scored positive = clear zone around antibiotic disk; Medium A agar, 37° C., up to 14 days. How it is done:
as §1

In test [9] the test system is Cluster 2 haloalkaliphilic bacteria. Described as above. To be noted: share of strains of cluster 2 (78.5% similarity level, SSM) scored positive = clear zone around antibiotic disk; Medium A agar, 37° C., up to 14 days. It counts as cell-based. How it is done: as §1
Test [10] relates to Cluster 3 haloalkaliphilic bacteria. The description is as above. It counts as cell-based, haloalkaliphilic eubacteria. To be noted: share of strains of cluster 3 (78.5% similarity level, SSM) scored positive = clear zone around antibiotic disk; Medium A agar, 37° C., up to 14 days. Here is the method: as §1
Test [11] relates to Cluster 4 haloalkaliphilic bacteria. The test is described as above. Format: cell-based, haloalkaliphilic eubacteria. To be noted: share of strains of cluster 4 (78.5% similarity level, SSM) scored positive = clear zone around antibiotic disk; Medium A agar, 37° C., up to 14 days. Here is the method: as §1

For `CC1(C)S[C@@H]2[C@H](NC(=O)[C@H](N)c3ccccc3)C(=O)N2[C@H]1C(=O)O` [ampicillin], the “Inhibition of growth by antibiotic” value in [1] is given as “inhibited”; in test [2], “inhibited”; in test [3], “not inhibited”; in test [4], “inhibited”; in [5], “inhibited”; in [6], “inhibited”. Also, the “Inhibition of growth by antibiotic” value in [7] is on record as “not inhibited”. Besides, the “Distribution of positive characters: antibiotic sensitivity, Cluster 1” value (“Distribution of positive characters … Cluster 1” below) in test [8] was determined as 0. The “Distribution of positive characters: antibiotic sensitivity, Cluster 2” value (“Distribution of positive characters … Cluster 2” for short) in test [9] turned out to be 0. Besides, the “Distribution of positive characters: antibiotic sensitivity, Cluster 3” value (from here on “Distribution of positive characters … Cluster 3”) in test [10] came out at 100. For the same compound, the “Distribution of positive characters: antibiotic sensitivity, Cluster 4” value (from here on “Distribution of positive characters … Cluster 4”) in test [11] is reported as 67.
For `O=C(N[C@H](CO)[C@H](O)c1ccc([N+](=O)[O-])cc1)C(Cl)Cl` [chloramphenicol], the “Inhibition of growth by antibiotic” value in test [1] is listed as “not inhibited”; in [2], “inhibited”; in test [3], “not inhibited”; in test [4], “inhibited”; in test [6], “inhibited”; in test [7], “not inhibited”. The “Distribution of positive characters … Cluster 1” value in test [8] is recorded as 0. Moreover, the “Distribution of positive characters … Cluster 2” value in test [9] turned out to be 0. In addition, in test [10], the “Distribution of positive characters … Cluster 3” value was 100. For the same compound, the “Distribution of positive characters … Cluster 4” value in test [11] is recorded as 100.
Turning to `CC[C@H]1OC(=O)[C@H](C)[C@@H](O[C@H]2C[C@@](C)(OC)[C@@H](O)[C@H](C)O2)[C@H](C)[C@@H](O[C@@H]2O[C@H](C)C[C@H](N(C)C)[C@H]2O)[C@](C)(O)C[C@@H](C)C(=O)[C@H](C)[C@@H](O)[C@]1(C)O` [erythromycin], the “Inhibition of growth by antibiotic” value in test [1] is on record as “not inhibited”; in test [2], “inhibited”; in [3], “inhibited”; in [4], “inhibited”; in test [5] it was “inhibited”; in test [6], “inhibited”. Moreover, in test [7], the “Inhibition of growth by antibiotic” value is given as “inhibited”. The “Distribution of positive characters … Cluster 1” value in test [8] came out at 86. Besides, the “Distribution of positive characters … Cluster 2” value in test [9] is recorded as 73. In addition, the “Distribution of positive characters … Cluster 3” value in test [10] is 100. The “Distribution of positive characters … Cluster 4” value in [11] is 100.
Turning to `CC(=O)O[C@H]1C[C@@]2(C)[C@@H](C[C@@H](O)[C@H]3[C@@]4(C)CC[C@@H](O)[C@@H](C)[C@@H]4CC[C@@]32C)/C1=C(\CCC=C(C)C)C(=O)O` [fusidic acid], the “Inhibition of growth by antibiotic” value is reported as “not inhibited” in [1], “inhibited” in test [2] and “inhibited” in [4]. Also, the “Distribution of positive characters … Cluster 1” value in [8] worked out at 14. Besides, in test [9], the “Distribution of positive characters … Cluster 2” value is 9. The “Distribution of positive characters … Cluster 3” value in [10] came out at 0. For the same compound, the “Distribution of positive characters … Cluster 4” value in [11] amounted to 17.
As for `COc1cccc(OC)c1C(=O)N[C@@H]1C(=O)N2[C@@H]1SC(C)(C)[C@@H]2C(=O)O` [methicillin], the “Inhibition of growth by antibiotic” value is recorded as “not inhibited” in test [1], “inhibited” in [2] and “inhibited” in test [4]. Also, the “Distribution of positive characters … Cluster 1” value in test [8] was found to be 0. Further, the “Distribution of positive characters … Cluster 2” value in test [9] came to 0. The “Distribution of positive characters … Cluster 3” value in test [10] was determined as 0. Besides, the “Distribution of positive characters … Cluster 4” value in test [11] is reported as 0.
With `CCn1cc(C(=O)O)c(=O)c2ccc(C)nc21` [nalidixic acid], the “Inhibition of growth by antibiotic” value in test [1], in test [2] and in test [4] was “inhibited” throughout. Also, the “Distribution of positive characters … Cluster 1” value in [8] is on record as 0. Also, the “Distribution of positive characters … Cluster 2” value in test [9] is on record as 18. Moreover, the “Distribution of positive characters … Cluster 3” value in [10] is listed as 0. In [11], the “Distribution of positive characters … Cluster 4” value is given as 0.
Turning to `CO[C@@H]1[C@@H](OC(N)=O)[C@@H](O)[C@H](Oc2ccc3c(O)c(NC(=O)c4ccc(O)c(CC=C(C)C)c4)c(=O)oc3c2C)OC1(C)C` [novobiocin], the “Inhibition of growth by antibiotic” value in test [1], in test [2], in test [3], in [4], in [5] and in [6] was “inhibited” each time. In addition, the “Inhibition of growth by antibiotic” value in [7] is on record as “inhibited”. Further, the “Distribution of positive characters … Cluster 1” value in [8] is listed as 100. Moreover, the “Distribution of positive characters … Cluster 2” value in test [9] is reported as 82. For the same compound, in test [10], the “Distribution of positive characters … Cluster 3” value is 33. Also, the “Distribution of positive characters … Cluster 4” value in test [11] amounted to 100.
On to `CC1(C)S[C@@H]2[C@H](NC(=O)Cc3ccccc3)C(=O)N2[C@H]1C(=O)O` [penicillin G], for which the “Inhibition of growth by antibiotic” value in [1] was “inhibited”; in [2], “inhibited”; in [3], “not inhibited”; in test [4], “inhibited”; in [5] it was “inhibited”; in test [6], “inhibited”. Further, the “Inhibition of growth by antibiotic” value in test [7] is given as “not inhibited”.
`[H]/N=C(/N)N[C@H]1[C@H](O)[C@@H](O)[C@H](O[C@@H]2O[C@@H](C)[C@](O)(C=O)[C@H]2O[C@@H]2O[C@@H](CO)[C@H](O)[C@@H](O)[C@@H]2NC)[C@@H](N/C(N)=N\[H])[C@@H]1O` [streptomycin]: the “Inhibition of growth by antibiotic” value was “inhibited” in test [1]; “inhibited” in [2]; “not inhibited” in [3]; “inhibited” in [4]; “not inhibited” in test [5]; “not inhibited” in test [6]. Further, in test [7], the “Inhibition of growth by antibiotic” value is “not inhibited”. Moreover, the “Distribution of positive characters … Cluster 1” value in test [8] is 0. Also, the “Distribution of positive characters … Cluster 2” value in [9] was 18. In addition, in test [10], the “Distribution of positive characters … Cluster 3” value is on record as 67. The “Distribution of positive characters … Cluster 4” value in test [11] is on record as 0.
Consider gentamicin, for which the “Inhibition of growth by antibiotic” value is given as “not inhibited” in test [1]; “inhibited” in test [2]; “not inhibited” in test [3]; “inhibited” in test [4]; “inhibited” in test [5]; “not inhibited” in [6]. Further, in test [7], the “Inhibition of growth by antibiotic” value is listed as “not inhibited”.

These data come from patent US6420147B1, “Haloalkaliphilic microorganisms” (Genencor International, Inc., priority 1991, dated 2002).
